24 compounds from patent US20140031388A1, “AKT INACTIVATION BY TOCOPHERYL DERIVATIVES” (priority 2012, published 2014) can be followed below.

Read-outs that look alike come from different tables or passages of the source.

In experiment [1] the test system is LNCaP and PC-3 cells. In words: MTT viability assay, one value stated for both prostate cancer lines. It counts as cell-based. The conditions noted are these: MTT, serum-free medium; one value for LNCaP and PC-3; read-out: IC50, antiproliferative effect / viability. As for the experimental part:
(§1) The prostate cancer cell lines, LNCaP and PC-3, were purchased from American Type Culture Collection (Manassas, Va.) and maintained in RPMI 1640 medium containing 10% heat-inactivated fetal bovine serum at 37° C. in a humidified incubator containing 5% CO2. The LNCaP-abl cells were a generous gift from Dr. Qianben Wang (The Ohio State University). Normal prostate epithelial cells were purchased from Lonza (Walkersville, Md.) and were cultured in the vendor-recommended defined prostate epithelial cell growth medium. For experiments, LNCaP cells were plated on poly-D-lysine-coated culture flasks at a density of 12,000 cells per cm^2 surface area for 24 hours, followed by treatment with test agents in serum-free RPMI 1640 medium. The α- and γ-tocopherols were purchased from Sigma-Aldrich (St. Louis, Mo.). The tocopherol derivatives, α- and γ-VE5, were synthesized by the inventors.
(§2) LNCaP cells were plated into poly-D-lysine-coated 96-well plates and PC-3 and LNCaP-abl cells into uncoated plates at the density of 5,000 cells per well in the presence of 10% FBS. Normal prostate epithelial cells were plated into uncoated plates at a density of 8,000 cells per well. Exposure to test agents in serum-free medium was initiated 24 hours later. After 24 hours of treatment, cells were incubated with MTT [3-(4,5-dimethylthiazol-2-yl)-2,5-diphenyl-2H-tetrazolium bromide] (TCI America; 0.5 mg/ml, final concentration) for an additional 2 hours. The medium was then removed from each well and replaced with DMSO to dissolve the reduced MTT dye for subsequent colorimetric measurement of absorbance at 595 nm. Cell viabilities are calculated as percentages of that in the corresponding vehicle-treated control group.
In general terms: Tetrazolium dyes change colour on reduction, which living cells bring about.

Experiment [2] concerns phosphorylation of Ser473 in Akt. In words: Western blot of Akt phosphorylation at Ser473. The conditions noted are these: LNCaP and PC-3 cells, Thr308 not altered. It counts as cell-based. As for the experimental part: (§3) Cells were exposed to the test agents in 10-cm dishes for 24 hours and then collected by scraping. The cell pellets were washed once with PBS, and then lysed at 4° C. over 30 min of incubation in a sodium dodecyl sulfate (SDS) lysis buffer containing 1% SDS, 50 mM Tris HCl (pH 8.1), 10 mM EDTA and […] protease inhibitor cocktail (Sigma-Aldrich). The cell debris was pelleted by centrifugation for 20 min at 14,000×g, and 1 μl of each supernatant was used for determination of protein concentration using a colorimetric bicinchoninic assay (Pierce, Rockford, Ill.). The remaining sample was added to equal volume of 2×SDS-polyacrylamide gel electrophoresis sample loading buffer (62.5 mM Tris-HCl, pH 6.8, 4% SDS, 5% β-mercaptoethanol, 20% glycerol, 0.1% bromophenol blue), followed by incubation in boiling water for 5 min. Equivalent amounts of total protein were resolved in SDS-polyacrylamide gels, and then transferred to nitrocellulose membranes using a semidry transfer cell. The transblotted membrane was washed twice with Tris-buffered saline containing 0.1% Tween 20 (TBST). After blocking with TBST containing 5% nonfat milk for 40 min, the membrane was incubated with the appropriate primary antibody (1:1000) in TBST-1% nonfat milk at 4° C. overnight. The membrane was then washed three times with TBST for a total of 15 min, followed by incubation with goat anti-rabbit or anti-mouse IgG-horseradish peroxidase conjugates (1:2000) for 1 hour at room temperature and four washes with TBST for a total of 1 hour. The immunoblots were visualized by enhanced chemiluminescence (GE Healthcare Life Sciences).
Background: Immunoblotting shows a protein as a band on a membrane.

The test system of experiment [3] is Normal prostate epithelial cells. In words: Viability / apoptosis in normal prostate epithelial cells. It counts as cell-based. The procedure:
as §1, §2

The subject of experiment [4] is mTORC2 (mTOR, rictor, SGK, PKCα). In words: Western blot of mTORC2 components and downstream targets. It counts as cell-based. As for the experimental part: as §3
Experiment [5] has as its system LNCaP cells. In words: MTT viability assay, LNCaP. The conditions noted are these: Homo sapiens, 1% FBS-containing or serum-free RPMI 1640 medium for 24 h. It counts as cell-based. As for the experimental part: as §1
as §2, with “Exposure to test agents in serum-free medium was initiated 24 hours later.” left out

For experiment [6], the system named is PC-3 cells. In words: MTT viability assay, PC-3. It counts as cell-based. The conditions noted are these: Homo sapiens. As for the experimental part:
as §1
as §2, with “Exposure to test agents in serum-free medium was initiated 24 hours later.” left out

The target in experiment [7] is T1, PH domain of Akt (GST-PH domain fusion protein) (Homo sapiens, UniProt P31749).
T1 construct: made in house
T1 sequence (P31749 5-108 limits assumed): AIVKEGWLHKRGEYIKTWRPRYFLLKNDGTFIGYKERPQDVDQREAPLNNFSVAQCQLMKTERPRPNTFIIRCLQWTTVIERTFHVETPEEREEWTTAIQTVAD
In words: Surface plasmon resonance binding, Akt PH domain. The conditions noted are these: Table 3; binding affinities to the Akt PH domain; read-out: Kd. The text has this:
The cDNA fragments corresponding to the putative PH domain sequences of PHLPP1 (+115 to +372), PDK1 (+1225 to +1671), Akt1 (+1 to +447) and ILK (+538 to +646) were PCR-amplified using the plasmids pcDNA-HA-PHLPP1, pWZL-Neo-Myr-FLAG-PDPK1, pcDNA-HA-PKB-T308D-S473D, and pCMV-SPORT-ILK (Addgene) as templates. The PCR products were then cloned into EcoRI/XhoI sites of the pGEX-4T1 expression vector (GE Healthcare Life Sciences) to generate four constructs (pGEX-4T1-PHLPP1, pGEX-4T1-PDPK1, pGEX-4T1-AKT1, pGEX-4T1-ILK) for the expression of GST-PH domain fusion proteins. The mutated Akt1 Y38G PH domain was generated from pGEX-4T1-AKT1 by site-directed mutagenesis using the QuikChange II XL Site-Directed Mutagenesis Kit (Agilent Technologies). The expression and purification of GST-PH domain fusion proteins were performed essentially as described previously. Thomas et al., Curr Biol 12, 1256 (2002). The purified PH domains were analyzed by SDS-PAGE using an overloaded gel with purities were estimated to be >95% using ImageJ software.
Binding experiments were performed using a Biacore T100 system (GE Healthcare, Piscataway, N.J.). The GST-PH domain fusion proteins were immobilized on a CM5 S Sensorchip using Biacore's Amine Coupling Kit to a level of 17,000 response units. VE5 compounds and di-octanoyl PIP3 at concentrations ranging from 0.1 to 100 μM and 1 to 20 μm, respectively, were injected at a high flow rate (30 μL/min) over the biosensor surface for binding analyses. DMSO concentrations in all samples and running buffer were 1% (v/v) or less. Data were analyzed using Biacore T100 Evaluation Software.

Setting [8] is: PC-3, 1% FBS-containing or serum-free RPMI 1640 medium for 24 h, read-out: IC50 (μM) PC-3.
Where [9] appears, read: PC-3, Table 4, effect of chain length on antiproliferative activity, read-out: IC50.
[10] abbreviates: Table 3, antitumor activities against PC-3 cells, read-out: IC50.

By Kd is commonly meant a measure of binding affinity in units of concentration.

For `Cc1c(O)cc2c(c1C)O[C@](C)(CCC[C@H](C)CCC[C@H](C)CCCC(C)C)CC2` [γ-tocopherol, reference compound], the IC50 in experiment [1] was 100 to 150 µM. Further, the “effect on phosphorylation of Akt at Ser473” value in experiment [2] is given as “dose-dependently reduced”. In addition, the “apoptosis in normal prostate epithelial cells” value in experiment [3] is “resistant”. The “abundance or phosphorylation of mTORC2 components and targets (mTOR, rictor, SGK, PKCα)” value in experiment [4] is given as “no effect”.

Take `CC(C)CCCC1(C)CCc2c(O)cccc2O1` (racemic) [Compound 31, 2-methyl-2-(4-methylpentyl)chroman-5-ol]: in experiment [5], the IC50 was found to be 18 µM. `Cc1cc2c(cc1O)C(=O)CC(C)(CCCC(C)C)O2` (racemic) [Compound 34, 6-hydroxy-2,7-dimethyl-2-(4-methylpentyl)chroman-4-one] yielded an IC50 in experiment [5] of 30 µM. `CCCCCCCCC1(C)CCc2cc(O)cc(C)c2N1` (stereo not drawn) [Compound 10, 2,8-dimethyl-2-octyl-1,2,3,4-tetrahydro-quinolin-6-ol]: the IC50 in experiment [6] (setting [8]) and in experiment [6] (setting [9]) was 8.5 µM in each case.

For `CC(C)CCCC1(C)CCc2cc(N)ccc2O1` (racemic) [Compound 32, 2-methyl-2-(4-methylpentyl)chroman-6-amine], in experiment [5], the IC50 was above 50 µM. Regarding `Cc1cc(O)cc2c1OC(C)(CCCC(C)C)CC2` (stereo not drawn) [Compound 2, 2,8-dimethyl-2-(4-methylpentyl)chroman-6-ol], the Kd in experiment [7] stood at 0.6 µM. Moreover, the IC50 in experiment [6] (setting [8]) and in experiment [6] (setting [10]) was 9 µM throughout. As to `Cc1c(O)cc2c(c1C)OC(C)(CCCC(C)C)CC2` (racemic) [rac-VE5], the IC50 in experiment [5] amounted to 20 µM.

Compound `Cc1c(O)cc2c(c1C)O[C@](C)(CCCC(C)CCCC(C)C)CC2` (stereo partly drawn) [Compound 27, (2R)-2-(4,8-dimethylnonyl)-2,7,8-trimethylchroman-6-ol] came in with an IC50 in experiment [5] of 30 µM.

In experiment [5], `CC(C)CCCC1(C)CCc2ccc(O)c(O)c2O1` (racemic) [Compound 35, 2-methyl-2-(4-methylpentyl)chroman-7,8-diol] had an IC50 above 50 µM. The same measure, in the same setting: the figure for `CC(C)CCCC1(C)CCc2cc(O)ccc2O1` (racemic) [Compound 29, 2-methyl-2-(4-methylpentyl)chroman-6-ol] is 40 µM.

As to `CC(C)CCCC1(C)CCc2cc(O)cc(F)c2O1` (stereo not drawn) [Compound 7, 8-fluoro-2-methyl-2-(4-methylpentyl)-chroman-6-ol], the Kd in experiment [7] turned out to be 0.5 µM. Also, the IC50 in experiment [6] (setting [8]) and in experiment [6] (setting [10]) was 7 µM each time.

As to `COc1cc(O)cc2c1OC(C)(CCCC(C)C)CC2` (stereo not drawn) [Compound 5, 8-methoxy-2-methyl-2-(4-methylpentyl)-chroman-6-ol], the Kd in experiment [7] came out at 3.1 µM. In addition, the IC50 in experiment [6] (setting [8]) and in experiment [6] (setting [10]) was 28 µM each time. As for `COCCCC1(C)CCc2cc(O)cc(F)c2O1` (stereo not drawn) [Compound 11, 8-fluoro-2-(3-methoxypropyl)-2-methyl-chroman-6-ol], the IC50 in experiment [6] (setting [8]) and in experiment [6] (setting [9]) was above 30 µM in each case. Regarding `Cc1c(O)cc2c(c1C)NC(C)(CCCC(C)C)CC2` (stereo not drawn) [Compound 9, 2,7,8-trimethyl-2-(4-methylpentyl)-1,2,3,4-tetrahydroquinolin-6-ol], in experiment [7], the Kd was 0.1 µM. Moreover, the IC50 in experiment [6] (setting [8]) and in experiment [6] (setting [10]) was 15 µM each time.

Regarding `CCc1ccc(CCC2(C)CCc3cc(O)cc(F)c3O2)cc1` (stereo not drawn) [Compound 13, 2-(4-ethylphenethyl)-8-fluoro-2-methyl-chroman-6-ol], the IC50 in experiment [6] (setting [8]) and in experiment [6] (setting [9]) was 9 µM in each case. With `CCCCCCCCC1(C)CCc2cc(O)cc(F)c2O1` (stereo not drawn) [Compound 12, 8-fluoro-2-methyl-2-octylchroman-6-ol], the IC50 in experiment [6] (setting [8]) and in experiment [6] (setting [9]) was 8.5 µM throughout. Regarding `CC(C)CCCC1(C)CCc2cc(O)cc(C(F)(F)F)c2O1` (racemic) [Compound 3, 2-methyl-2-(4-methylpentyl)-8-(trifluoro-methyl)chroman-6-ol], the Kd in experiment [7] amounted to 0.7 µM. Further, the IC50 in experiment [6] (setting [8]) and in experiment [6] (setting [10]) was 8 µM in each case. For the compound `CC(C)CCCC1(C)CCc2cc(O)cc(Br)c2O1` (stereo not drawn) [Compound 8, 8-bromo-2-methyl-2-(4-methylpentyl)-chroman-6-ol], in experiment [7], the equilibrium dissociation constant (Kd) is 0.65 µM. For the same compound, the IC50 in experiment [6] (setting [8]) and in experiment [6] (setting [10]) was 7 µM each time. Turning to `CC(C)CCCC1(C)CC(=O)c2cc(O)ccc2O1` (racemic) [Compound 33, 6-hydroxy-2-methyl-2-(4-methylpentyl)chroman-4-one], in experiment [5], the IC50 is 30 µM.

`COc1ccc2c(c1)CCC(C)(CCCC(C)C)O2` (racemic) [Compound 30, 6-methoxy-2-methyl-2-(4-methylpentyl)-chroman]: in experiment [5], the IC50 was 40 µM.

In turn, `CC(C)CCCC1(C)CCc2c(O)cc(N3CCCC3)cc2O1` (racemic) [Compound 36, 2-methyl-2-(4-methylpentyl)-7-(pyrrolidin-1-yl)chroman-5-ol] came in with an IC50 in experiment [5] of 21 µM. The same measure, in the same setting: the result for `CC(C)CCCC1(C)CC(=O)c2c(O)cc(N3CCCC3)cc2O1` (racemic) [Compound 37, 5-hydroxy-2-methyl-2-(4-methylpentyl)-7-(pyrrolidin-1-yl)chroman-4-one] reads above 50 µM; that for `Cc1c(C)c2c(c(C)c1O)CC[C@@](C)(CCCC(C)CCCC(C)C)O2` (stereo partly drawn) [Compound 28, (2R)-2-(4,8-dimethylnonyl)-2,5,7,8-tetramethylchroman-6-ol], 42 µM.

For the compound `CC(C)CCCC1(C)CCc2cc(O)cc(O)c2O1` (stereo not drawn) [Compound 4, 2-methyl-2-(4-methylpentyl)chroman-6,8-diol], the Kd in experiment [7] is 2 µM. For the same compound, the IC50 in experiment [6] (setting [8]) and in experiment [6] (setting [10]) was 27 µM throughout.
